Where “and” joins values, the source holds several entries; their conditions need not be identical. Equal values may be shown once.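 Interpolation was linear, between the two tested concentrations surrounding the appropriate level; five concentrations were tested over 48 hours in 96-well plates. GI50 marks 50% less growth. TGI marks complete inhibition of growth.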
Legend:
Assay in all cases: NCI-60 cell line screen, 48 h
OVCAR-4 ovarian = test system: OVCAR-4 ovarian
HS 578T breast = test system: HS 578T breast
786-0 renal = test system: 786-0 renal
LOX IMVI melanoma = test system: LOX IMVI melanoma
ACHN renal = test system: ACHN renal
A498 renal = test system: A498 renal
TK-10 renal = test system: TK-10 renal
A549 NSCLC = test system: A549 NSCLC
SN12C renal = test system: SN12C renal
SNB-75 CNS = test system: SNB-75 CNS
SK-MEL-5 melanoma = test system: SK-MEL-5 melanoma
SF-295 CNS = test system: SF-295 CNS
MCF7 breast = test system: MCF7 breast
OVCAR-8 ovarian = test system: OVCAR-8 ovarian
UACC-62 melanoma = test system: UACC-62 melanoma
RPMI-8226 leukemia = test system: RPMI-8226 leukemia
SR leukemia = test system: SR leukemia
T-47D breast = test system: T-47D breast
UO-31 renal = test system: UO-31 renal
U251 CNS = test system: U251 CNS
BT-549 breast = test system: BT-549 breast
IGROV1 ovarian = test system: IGROV1 ovarian
SF-539 CNS = test system: SF-539 CNS
NCI/ADR-RES ovarian = test system: NCI/ADR-RES ovarian
SK-OV-3 ovarian = test system: SK-OV-3 ovarian
SF-268 CNS = test system: SF-268 CNS
HCC-2998 colon = test system: HCC-2998 colon
HT29 colon = test system: HT29 colon
M14 melanoma = test system: M14 melanoma
HCT-116 colon = test system: HCT-116 colon
CCRF-CEM leukemia = test system: CCRF-CEM leukemia
EKVX NSCLC = test system: EKVX NSCLC
KM12 colon = test system: KM12 colon
MOLT-4 leukemia = test system: MOLT-4 leukemia
COLO 205 colon = test system: COLO 205 colon
CAKI-1 renal = test system: CAKI-1 renal
SK-MEL-28 melanoma = test system: SK-MEL-28 melanoma
K-562 leukemia = test system: K-562 leukemia
OVCAR-5 ovarian = test system: OVCAR-5 ovarian
SK-MEL-2 melanoma = test system: SK-MEL-2 melanoma
DU-145 prostate = test system: DU-145 prostate
MDA-MB-231 breast = test system: MDA-MB-231 breast
HOP-92 NSCLC = test system: HOP-92 NSCLC
SNB-19 CNS = test system: SNB-19 CNS
NCI-H460 lung = test system: NCI-H460 lung
SW-620 colon = test system: SW-620 colon
NCI-H23 lung = test system: NCI-H23 lung
OVCAR-3 ovarian = test system: OVCAR-3 ovarian
NCI-H522 lung = test system: NCI-H522 lung
HCT-15 colon = test system: HCT-15 colon
MDA-MB-435 = test system: MDA-MB-435
HOP-62 NSCLC = test system: HOP-62 NSCLC
HL-60(TB) leukemia = test system: HL-60(TB) leukemia
NCI-H226 lung = test system: NCI-H226 lung
PC-3 prostate = test system: PC-3 prostate
RXF 393 renal = test system: RXF 393 renal
MDA-N = test system: MDA-N
UACC-257 melanoma = test system: UACC-257 melanoma
MALME-3M melanoma = test system: MALME-3M melanoma

SMILES: C[C@H](CCC(=O)O)[C@H]1CC[C@H]2[C@@H]3CC[C@@H]4C[C@H](O)CC[C@]4(C)[C@H]3CC[C@]12C
- GI50 (OVCAR-4 ovarian): > 100 µM and 32 µM
- TGI (OVCAR-4 ovarian): > 100 µM and 84.5 µM
- GI50 (HS 578T breast): > 100 µM and 33.3 µM
- TGI (HS 578T breast): > 100 µM and 65.8 µM
- GI50 (786-0 renal): > 100 µM and 31.8 µM
- TGI (786-0 renal): > 100 µM
- GI50 (LOX IMVI melanoma): > 100 µM and 28.9 µM
- TGI (LOX IMVI melanoma): > 100 µM and 80.3 µM
- GI50 (ACHN renal): > 100 µM and 37.8 µM
- TGI (ACHN renal): > 100 µM
- TGI (A498 renal): > 100 µM
- GI50 (TK-10 renal): > 100 µM and 33.6 µM
- TGI (TK-10 renal): > 100 µM and 83.3 µM
- GI50 (A549 NSCLC): > 100 µM and 18.4 µM
- TGI (A549 NSCLC): > 100 µM and 46.2 µM
- GI50 (SN12C renal): > 100 µM and 20.8 µM
- TGI (SN12C renal): > 100 µM and 56.1 µM
- GI50 (SNB-75 CNS): 44.6 µM and 24.6 µM
- TGI (SNB-75 CNS): > 100 µM and 59.4 µM
- GI50 (SK-MEL-5 melanoma): > 100 µM and 18.3 µM
- TGI (SK-MEL-5 melanoma): > 100 µM and 35.3 µM
- GI50 (SF-295 CNS): > 100 µM and 37.2 µM
- TGI (SF-295 CNS): > 100 µM
- GI50 (MCF7 breast): > 100 µM and 36.5 µM
- TGI (MCF7 breast): > 100 µM
- GI50 (OVCAR-8 ovarian): > 100 µM and 41.3 µM
- TGI (OVCAR-8 ovarian): > 100 µM
- GI50 (UACC-62 melanoma): > 100 µM and 35.3 µM
- TGI (UACC-62 melanoma): > 100 µM
- GI50 (RPMI-8226 leukemia): > 100 µM and 22.9 µM
- TGI (RPMI-8226 leukemia): > 100 µM and 52.7 µM
- GI50 (SR leukemia): > 100 µM and 14.6 µM
- TGI (SR leukemia): > 100 µM and 32.8 µM
- GI50 (T-47D breast): > 100 µM and 19.9 µM
- TGI (T-47D breast): > 100 µM and 46.1 µM
- GI50 (UO-31 renal): > 100 µM and 14.3 µM
- TGI (UO-31 renal): > 100 µM and 27.3 µM
- GI50 (U251 CNS): > 100 µM and 21.3 µM
- TGI (U251 CNS): > 100 µM and 43.7 µM
- GI50 (BT-549 breast): > 100 µM and 28.4 µM
- TGI (BT-549 breast): > 100 µM and 74.7 µM
- GI50 (IGROV1 ovarian): > 100 µM and 40 µM
- TGI (IGROV1 ovarian): > 100 µM
- GI50 (SF-539 CNS): > 100 µM and 27.6 µM
- TGI (SF-539 CNS): > 100 µM and 61 µM
- GI50 (NCI/ADR-RES ovarian): > 100 µM and 29.3 µM
- TGI (NCI/ADR-RES ovarian): > 100 µM and 82.4 µM
- GI50 (SK-OV-3 ovarian): > 100 µM and 40.3 µM
- TGI (SK-OV-3 ovarian): > 100 µM
- GI50 (SF-268 CNS): > 100 µM and 36 µM
- TGI (SF-268 CNS): > 100 µM
- GI50 (HCC-2998 colon): > 100 µM and 19.8 µM
- TGI (HCC-2998 colon): > 100 µM and 40.2 µM
- GI50 (HT29 colon): > 100 µM and 21.6 µM
- TGI (HT29 colon): > 100 µM and 57.7 µM
- GI50 (M14 melanoma): > 100 µM and 17.3 µM
- TGI (M14 melanoma): > 100 µM and 42 µM
- GI50 (HCT-116 colon): > 100 µM and 18.4 µM
- TGI (HCT-116 colon): > 100 µM and 33.2 µM
- GI50 (CCRF-CEM leukemia): > 100 µM
- TGI (CCRF-CEM leukemia): > 100 µM
- GI50 (EKVX NSCLC): > 100 µM and 20 µM
- TGI (EKVX NSCLC): > 100 µM and 69 µM
- GI50 (KM12 colon): > 100 µM and 24.4 µM
- TGI (KM12 colon): > 100 µM and 67.2 µM
- GI50 (MOLT-4 leukemia): > 100 µM and 21.5 µM
- TGI (MOLT-4 leukemia): > 100 µM and 52.3 µM
- GI50 (COLO 205 colon): > 100 µM and 25.5 µM
- TGI (COLO 205 colon): > 100 µM and 54.6 µM
- GI50 (CAKI-1 renal): > 100 µM and 22.2 µM
- TGI (CAKI-1 renal): > 100 µM and 47.1 µM
- GI50 (SK-MEL-28 melanoma): > 100 µM and 27 µM
- TGI (SK-MEL-28 melanoma): > 100 µM and 85.3 µM
- GI50 (K-562 leukemia): > 100 µM and 17.4 µM
- TGI (K-562 leukemia): > 100 µM and 43.8 µM
- GI50 (OVCAR-5 ovarian): > 100 µM and 20.7 µM
- TGI (OVCAR-5 ovarian): > 100 µM and 60.3 µM
- GI50 (SK-MEL-2 melanoma): > 100 µM and 21.5 µM
- TGI (SK-MEL-2 melanoma): > 100 µM and 45.6 µM
- GI50 (DU-145 prostate): 86.7 µM and 30 µM
- TGI (DU-145 prostate): > 100 µM and 87.7 µM
- GI50 (MDA-MB-231 breast): > 100 µM and 28.3 µM
- TGI (MDA-MB-231 breast): > 100 µM and 73.2 µM
- GI50 (HOP-92 NSCLC): > 100 µM and 34.1 µM
- TGI (HOP-92 NSCLC): > 100 µM and 99.2 µM
- GI50 (SNB-19 CNS): > 100 µM and 24.3 µM
- TGI (SNB-19 CNS): > 100 µM and 90.7 µM
- GI50 (NCI-H460 lung): > 100 µM and 18.2 µM
- TGI (NCI-H460 lung): > 100 µM and 32.3 µM
- GI50 (SW-620 colon): > 100 µM and 27 µM
- TGI (SW-620 colon): > 100 µM and 78.7 µM
- GI50 (NCI-H23 lung): > 100 µM and 17.9 µM
- TGI (NCI-H23 lung): > 100 µM and 33.7 µM
- GI50 (OVCAR-3 ovarian): > 100 µM and 19 µM
- TGI (OVCAR-3 ovarian): > 100 µM and 33.3 µM
- GI50 (NCI-H522 lung): > 100 µM and 25.5 µM
- TGI (NCI-H522 lung): > 100 µM and 54.5 µM
- GI50 (HCT-15 colon): > 100 µM and 23.5 µM
- TGI (HCT-15 colon): > 100 µM and 62.3 µM
- GI50 (MDA-MB-435): > 100 µM and 22.6 µM
- TGI (MDA-MB-435): > 100 µM and 50.8 µM
- GI50 (HOP-62 NSCLC): > 100 µM and 28.2 µM
- TGI (HOP-62 NSCLC): > 100 µM and 73.8 µM
- GI50 (HL-60(TB) leukemia): > 100 µM and 15.1 µM
- TGI (HL-60(TB) leukemia): > 100 µM and 32.8 µM
- GI50 (NCI-H226 lung): > 100 µM and 37 µM
- TGI (NCI-H226 lung): > 100 µM
- GI50 (PC-3 prostate): > 100 µM and 23.9 µM
- TGI (PC-3 prostate): > 100 µM and 57.6 µM
- GI50 (RXF 393 renal): > 100 µM and 26 µM
- TGI (RXF 393 renal): > 100 µM and 62.4 µM
- GI50 (MDA-N): > 100 µM and 19.9 µM
- TGI (MDA-N): > 100 µM and 46.3 µM
- GI50 (UACC-257 melanoma): > 100 µM and 28.3 µM
- TGI (UACC-257 melanoma): > 100 µM and 67.6 µM
- GI50 (MALME-3M melanoma): > 100 µM and 40.2 µM
- TGI (MALME-3M melanoma): > 100 µM and 74.1 µM

Reference: PubChem BioAssay (NCI)
